Assay results published in ChEMBL document CHEMBL1201862, “PubChem BioAssay data set” (2004).
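Grown in 96-well plates, cells were treated for 48 hours with each compound at five concentrations. Insufficient inhibition: endpoint recorded as highest concentration tested. At the GI50, growth is halved.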 Activity calls are given as the source filed them. Cut-off read from the data, not from the text of the source: active = GI50 up to about 1.1 µM and inactive = higher.

Key:
Assay in all cases: growth of human tumour cells (NCI), 48 h
SR = tested on: SR
K562 = tested on: K562
A498 = tested on: A498
RXF 393 = tested on: RXF 393
T47D = tested on: T47D
HCT-116 = tested on: HCT-116
PC-3 = tested on: PC-3
HCT-15 = tested on: HCT-15
NCI-H226 = tested on: NCI-H226
HOP-92 = tested on: HOP-92
SK-MEL-28 = tested on: SK-MEL-28
OVCAR-5 = tested on: OVCAR-5
UACC-62 = tested on: UACC-62
MCF7 = tested on: MCF7
SNB-19 = tested on: SNB-19
IGROV-1 = tested on: IGROV-1
LOX IMVI = tested on: LOX IMVI
KM12 = tested on: KM12
BT-549 = tested on: BT-549
MDA-MB-231 = tested on: MDA-MB-231

| SMILES | GI50 (SR) | GI50 (K562) | GI50 (A498) | GI50 (RXF 393) | GI50 (T47D) | GI50 (HCT-116) | GI50 (PC-3) | GI50 (HCT-15) [µM] | GI50 (NCI-H226) | GI50 (HOP-92) | GI50 (SK-MEL-28) | GI50 (OVCAR-5) | GI50 (UACC-62) | GI50 (MCF7) | GI50 (SNB-19) | GI50 (IGROV-1) | GI50 (LOX IMVI) | GI50 (KM12) | GI50 (BT-549) | GI50 (MDA-MB-231) |
| --- | --- | --- | --- | --- | --- | --- | --- | --- | --- | --- | --- | --- | --- | --- | --- | --- | --- | --- | --- | --- |
| NC(=S)N1N=C(c2ccc3c(c2)CCC3)CC1c1ccccc1 (stereo not drawn) | 25.3 µM (inactive) | 13.1 µM (inactive) | 12.5 µM (inactive) | 2.88 µM (inactive) | 1.64 µM (inactive) | 22 µM (inactive) | 19.6 µM (inactive) | 13.8 | 34.2 µM (inactive) | 23.4 µM (inactive) | 41.5 µM (inactive) | 32.2 µM (inactive) | 17.6 µM (inactive) | 8.45 µM (inactive) | 34.6 µM (inactive) | 15 µM (inactive) | 31.5 µM (inactive) | 11.4 µM (inactive) | 22.5 µM (inactive) |  |
| [O-][S+](Nc1ccccc1)c1ccc(N2CCOCC2)cc1 (stereo not drawn) | 60.3 µM (inactive) | 27.3 µM (inactive) |  |  | 13.7 µM (inactive) | 21.2 µM (inactive) |  | 13 | > 100 µM (inactive) |  | > 100 µM (inactive) | > 10 µM (inactive) | 9.12 µM (inactive) | 57.4 µM (inactive) | > 100 µM (inactive) | 13.6 µM (inactive) | 71 µM (inactive) | 23.6 µM (inactive) | 6.82 µM (inactive) | 86.7 µM (inactive) |
| CCC(=O)Nc1ccc(N2C(=O)/C(=C/c3ccc(O)c(OC)c3)N=C2c2ccccc2)cc1 | 13.2 µM (inactive) | 18.5 µM (inactive) | 15.8 µM (inactive) | 10.9 µM (inactive) | 24 µM (inactive) | 34.4 µM (inactive) | 16.5 µM (inactive) | 21.3 | 19.5 µM (inactive) | 46.5 µM (inactive) | 25.6 µM (inactive) | 40.8 µM (inactive) | 26.4 µM (inactive) | 31.6 µM (inactive) | 22.5 µM (inactive) | 31.1 µM (inactive) | 36.7 µM (inactive) | 33.7 µM (inactive) | 20.4 µM (inactive) |  |
| O=C(O)c1cc(C(=O)C(=O)c2cc(C(=O)O)c(O)c3ccccc23)c2ccccc2c1O |  | > 100 µM (inactive) | > 100 µM (inactive) | > 100 µM (inactive) | > 100 µM (inactive) | > 100 µM (inactive) | > 100 µM (inactive) | > 100 | > 100 µM (inactive) | > 100 µM (inactive) | > 100 µM (inactive) | > 100 µM (inactive) | > 100 µM (inactive) | > 100 µM (inactive) | > 100 µM (inactive) | > 100 µM (inactive) | > 100 µM (inactive) | > 100 µM (inactive) | > 100 µM (inactive) | > 100 µM (inactive) |
| COc1ccc(N[C@H](CSc2ccc(C)cc2)c2ccc(F)cc2)cc1 | 25.2 µM (inactive) | 52 µM (inactive) |  | 68.5 µM (inactive) | 24.6 µM (inactive) | 45.8 µM (inactive) | > 100 µM (inactive) | 65.5 |  |  | > 100 µM (inactive) | > 100 µM (inactive) | 65.8 µM (inactive) | 61.8 µM (inactive) | > 100 µM (inactive) | > 100 µM (inactive) | 29.4 µM (inactive) | > 100 µM (inactive) | > 100 µM (inactive) | > 100 µM (inactive) |
| COc1ccc2c(c1)CC1C3(CCCCC23)CC[N+]1(C)C (stereo not drawn) | > 100 µM (inactive) | 75.5 µM (inactive) |  | > 100 µM (inactive) | > 100 µM (inactive) | > 100 µM (inactive) | > 100 µM (inactive) | > 100 | > 100 µM (inactive) | 87.5 µM (inactive) | > 100 µM (inactive) | > 100 µM (inactive) | > 100 µM (inactive) | > 100 µM (inactive) | 73.5 µM (inactive) | > 100 µM (inactive) | > 100 µM (inactive) | > 100 µM (inactive) | 24.9 µM (inactive) | > 100 µM (inactive) |
| Cc1ccc(/N=N/c2c(O)c3ccccc3[nH]c2=O)c(S(=O)(=O)N(C)C)c1 |  | > 100 µM (inactive) | > 100 µM (inactive) | > 100 µM (inactive) | > 100 µM (inactive) | > 100 µM (inactive) | > 100 µM (inactive) | > 100 | > 100 µM (inactive) | > 100 µM (inactive) | > 100 µM (inactive) | > 100 µM (inactive) | > 100 µM (inactive) | > 100 µM (inactive) | > 100 µM (inactive) | > 100 µM (inactive) | > 100 µM (inactive) | > 100 µM (inactive) | > 100 µM (inactive) | > 100 µM (inactive) |
